Source: patent publication US12202818B2, “Compounds and methods for CD73 modulation and indications therefor” (Opna Bio SA, priority 2020, dated 2025)

Tests used:
[1] = target: T1, Human CD73 (amino acid residues 27-549) (Homo sapiens, UniProt P21589); assay: CD73 enzymatic assay (luciferase-based indirect assay, CellTiter-Glo); type: biochemical; conditions: 0.4 nM CD73, 150 μM AMP, 1 hour at room temperature
T1 construct: Human CD73 (amino acid residues 27-549); His tag (N); made in house; host or cells: E. coli
T1 sequence (P21589 27-549): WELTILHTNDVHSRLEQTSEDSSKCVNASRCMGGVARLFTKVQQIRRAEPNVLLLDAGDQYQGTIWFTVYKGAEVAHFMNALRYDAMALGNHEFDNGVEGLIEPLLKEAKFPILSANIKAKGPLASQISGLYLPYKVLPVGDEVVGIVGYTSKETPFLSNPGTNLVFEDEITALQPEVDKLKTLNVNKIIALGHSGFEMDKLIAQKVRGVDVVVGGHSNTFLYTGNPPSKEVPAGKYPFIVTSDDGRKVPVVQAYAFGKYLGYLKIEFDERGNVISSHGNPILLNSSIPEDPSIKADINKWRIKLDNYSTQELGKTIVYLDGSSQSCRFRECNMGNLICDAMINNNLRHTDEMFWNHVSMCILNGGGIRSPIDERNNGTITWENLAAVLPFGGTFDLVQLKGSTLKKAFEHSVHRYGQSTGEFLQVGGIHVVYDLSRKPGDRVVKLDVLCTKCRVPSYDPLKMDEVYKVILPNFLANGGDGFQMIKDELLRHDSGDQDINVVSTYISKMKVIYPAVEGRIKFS
Protocol: CD73 enzymatic activity was measured in a luciferase-based indirect assay using CellTiter-Glo® system from Promega. The luciferase reaction in the presence of ATP is inhibited by AMP, a primary substrate of CD73. Addition of CD73 enzyme to the reaction converts AMP to adenosine, and release the inhibition, producing a luminescent signal. Inhibition of CD73 leads to the decrease of this luminescent signal.
Human CD73 (amino acid residues 27-549) with N-Terminal His tag was purified in E. coli. All the assay components were prepared in 50 mM HEPEs buffer (pH 7.4) with 0.01% Tween-20. The CD73 enzymatic assay was performed using 0.4 nM CD73 and 150 μM AMP. 9.5 μL of CD73 protein and 9.5 μL of AMP were added to the wells of a 384 well plate containing lpL of various concentrations of test compound or DMSO vehicle and incubated for 1 hour at room temperature. 16 wells containing CD73, AMP and 5% DMSO served as high control. 16 wells containing AMP and 5% DMSO served as low control. Enzymatic reaction was stopped and AMP level was measured indirectly by adding 5 μL of CellTiter-Glo® 2.0 reagent and 5 μL of ATP with a final concentration of 1 μM. Following incubation of the plate at room temperature for 30 minutes, luminescent signal was read on a Tecan plate reader. The percentage inhibition at individual concentrations relative to high and low controls was calculated. The data were analyzed by using nonlinear regression to generate IC50 values.

[2] = target: T2, human CD73 (Homo sapiens, UniProt P21589); assay: Inhibitor activity against CD73 in cell based assay (CD73 expressing CHO-K1 cells); conditions: CHO-K1 cells expressing human CD73, 150 μM AMP, 4 hours of incubation; read-out: CHO-K1 CELL_VARIANT: CD73 IC50
T2 construct: expressed in transfected cells
T2 sequence (P21589 27-549): T1 sequence (P21589 27-549)
Protocol: Determine Inhibitor Activity Against CD73 in Cell Based Assay
CD73 expressing CHO-K1 cell clones were generated upon stable transfection of a plasmid expressing human CD73 under the control of CMV promoter. Cells were selected in Ham's F-12K (Kaighn's) media supplemented with 10% fetal bovine serum and 1 mg/ml G418 at 37° C. in a humidified incubator supplied with 5% CO2. The assays were performed as follows. Cells were seeded in a 96 well plate in 50 μL of culture media at a density of 1×10^4 per well. Compound at a maximal concentration of 5 mM was serially diluted 1:3 in DMSO for a total of 8 point titration. A 2 μL aliquot of each dilution point was added to […] culture media and 25 µL was added to each well, providing 10 μM compound at the maximum concentration point. AMP was diluted in culture media and 25 μL was added to each well with a final concentration of 150 μM. 4 wells containing 0.2% DMSO treated cells and AMP served as high controls and 4 wells containing media only with 0.2% DMSO and AMP served as low controls. After 4 hours of incubation, 20 μL of the supernatant was transferred to a 384 well plate. AMP level in supernatant was measured indirectly by adding 5 μL of CellTiter-Glo® 2.0 reagent and 5 μL of ATP with a final concentration of 1 μM. Following incubation of plate at room temperature for 30 minutes, luminescent signal was read on a Tecan plate reader. The percentage inhibition at individual concentrations relative to high and low controls was calculated. The data were analyzed by using nonlinear regression to generate ICso values.

Row | IC50 [1] [µM] | IC50 [2] [µM] | Structure (SMILES)
1 | 0.001 to 10 | 0.001 to 10 | Cc1nn(C2(CC(N)=O)CCC2)c(C)c1-c1ccnc(O[C@@H]2CCN(c3cn[nH]c(=O)c3Cl)C2)c1 [P-0035, (R)-2-(1-(4-(2-((1-(5-chloro-6-oxo-1,6-dihydropyridazin-4-yl)pyrrolidin-3-yl)oxy)pyridin-4-yl)-3,5-dimethyl-1H-pyrazol-1-yl)cyclobutyl)acetamide]
2 | 0.001 to 10 | 0.001 to 10 | Cc1nn(C2(CC#N)CCC2)c(C)c1-c1ccnc(O[C@@H]2CCN(c3cn[nH]c(=O)c3Cl)C2)c1 [P-0036, (R)-2-(1-(4-(2-((1-(5-chloro-6-oxo-1,6-dihydropyridazin-4-yl)pyrrolidin-3-yl)oxy)pyridin-4-yl)-3,5-dimethyl-1H-pyrazol-1-yl)cyclobutyl)acetonitrile]
3 | 0.001 to 10 | 0.001 to 10 | Cc1nn(CC(C)(C)O)c(C)c1-c1ccnc(O[C@@H]2CCN(c3cn[nH]c(=O)c3Cl)C2)c1 [P-0038, (R)-4-chloro-5-(3-((4-(1-(2-hydroxy-2-methylpropyl)-3,5-dimethyl-1H-pyrazol-4-yl)pyridin-2-yl)oxy)pyrrolidin-1-yl)pyridazin-3(2H)-one]
4 | 0.001 to 10 | 0.001 to 10 | CNC(=O)Cn1nc(C)c(-c2ccnc(O[C@@H]3CCN(c4cn[nH]c(=O)c4Cl)C3)c2)c1C [P-0041, (R)-2-(4-(2-((1-(5-chloro-6-oxo-1,6-dihydropyridazin-4-yl)pyrrolidin-3-yl)oxy)pyridin-4-yl)-3,5-dimethyl-1H-pyrazol-1-yl)-N-methylacetamide]
5 | 0.001 to 10 | 0.001 to 10 | Cc1nn(CC2CCCOC2)c(C)c1-c1ccnc(O[C@@H]2CCN(c3cn[nH]c(=O)c3Cl)C2)c1 (stereo partly drawn) [P-0043, 4-chloro-5-((3R)-3-((4-(3,5-dimethyl-1-((tetrahydro-2H-pyran-3-yl)methyl)-1H-pyrazol-4-yl)pyridin-2-yl)oxy)pyrrolidin-1-yl)pyridazin-3(2H)-one]
6 | 0.001 to 10 | 0.001 to 10 | Cc1nn(CC(=O)O)c(C)c1-c1ccnc(O[C@@H]2CCN(c3cn[nH]c(=O)c3Cl)C2)c1 [P-0045, (R)-2-(4-(2-((1-(5-chloro-6-oxo-1,6-dihydropyridazin-4-yl)pyrrolidin-3-yl)oxy)pyridin-4-yl)-3,5-dimethyl-1H-pyrazol-1-yl)acetic acid]
7 | 0.001 to 10 | 0.001 to 10 | O=c1[nH]ncc(N2CC[C@@H](Oc3cc(C4CCN(CC(F)(F)F)CC4)ccn3)C2)c1Cl [P-0048, (R)-4-chloro-5-(3-((4-(1-(2,2,2-trifluoroethyl)piperidin-4-yl)pyridin-2-yl)oxy)pyrrolidin-1-yl)pyridazin-3(2H)-one]
8 | 0.001 to 10 | 0.001 to 10 | O=C(O)C1CC=C(c2ccnc(O[C@@H]3CCN(c4cn[nH]c(=O)c4Cl)C3)c2)CC1 (stereo partly drawn) [P-0050, 4-(2-(((R)-1-(5-chloro-6-oxo-1,6-dihydropyridazin-4-yl)pyrrolidin-3-yl)oxy)pyridin-4-yl)cyclohex-3-ene-1-carboxylic acid]
9 | 0.001 to 10 | 0.001 to 10 | CCC1(Cn2nc(C)c(-c3ccnc(O[C@@H]4CCN(c5cn[nH]c(=O)c5Cl)C4)c3)c2C)COC1 [P-0054, (R)-4-chloro-5-(3-((4-(1-((3-ethyloxetan-3-yl)methyl)-3,5-dimethyl-1H-pyrazol-4-yl)pyridin-2-yl)oxy)pyrrolidin-1-yl)pyridazin-3(2H)-one]

The next lines start with the compound.

Row | Structure (SMILES) | IC50 [1] [µM] | IC50 [2] [µM]
10 | Cc1nn(CC(C)(C)O)c(C)c1-c1cc(O[C@@H]2CCN(c3cn[nH]c(=O)c3Cl)C2)ncn1 [P-0037, (R)-4-chloro-5-(3-((6-(1-(2-hydroxy-2-methylpropyl)-3,5-dimethyl-1H-pyrazol-4-yl)pyrimidin-4-yl)oxy)pyrrolidin-1-yl)pyridazin-3(2H)-one] | 0.001 to 10 | 0.001 to 10
11 | Cc1nn(CC(O)C(F)(F)F)c(C)c1-c1ccnc(O[C@@H]2CCN(c3cn[nH]c(=O)c3Cl)C2)c1 (stereo partly drawn) [P-0039, 4-chloro-5-((3R)-3-((4-(3,5-dimethyl-1-(3,3,3-trifluoro-2-hydroxypropyl)-1H-pyrazol-4-yl)pyridin-2-yl)oxy)pyrrolidin-1-yl)pyridazin-3(2H)-one] | 0.001 to 10 | 0.001 to 10
12 | Cc1nn(CC(=O)NC2CC2)c(C)c1-c1ccnc(O[C@@H]2CCN(c3cn[nH]c(=O)c3Cl)C2)c1 [P-0040, (R)-2-(4-(2-((1-(5-chloro-6-oxo-1,6-dihydropyridazin-4-yl)pyrrolidin-3-yl)oxy)pyridin-4-yl)-3,5-dimethyl-1H-pyrazol-1-yl)-N-cyclopropylacetamide] | 0.001 to 10 | 0.001 to 10
13 | Cc1nn(CC2CCCO2)c(C)c1-c1ccnc(O[C@@H]2CCN(c3cn[nH]c(=O)c3Cl)C2)c1 (stereo partly drawn) [P-0042, 4-chloro-5-((3R)-3-((4-(3,5-dimethyl-1-((tetrahydrofuran-2-yl)methyl)-1H-pyrazol-4-yl)pyridin-2-yl)oxy)pyrrolidin-1-yl)pyridazin-3(2H)-one] | 0.001 to 10 | 0.001 to 10
14 | Cc1nn(CCC#N)c(C)c1-c1ccnc(O[C@@H]2CCN(c3cn[nH]c(=O)c3Cl)C2)c1 [P-0044, (R)-3-(4-(2-((1-(5-chloro-6-oxo-1,6-dihydropyridazin-4-yl)pyrrolidin-3-yl)oxy)pyridin-4-yl)-3,5-dimethyl-1H-pyrazol-1-yl)propanenitrile] | 0.001 to 10 | 0.001 to 10
15 | N#CC1CCC(c2ccnc(O[C@@H]3CCN(c4cnn(CCO)c(=O)c4Cl)C3)c2)CC1 (stereo partly drawn) [P-0046, (R)-4-(2-((1-(5-chloro-1-(2-hydroxyethyl)-6-oxo-1,6-dihydropyridazin-4-yl)pyrrolidin-3-yl)oxy)pyridin-4-yl)cyclohexane-1-carbonitrile] | 0.001 to 10 | 0.001 to 10
16 | O=C(O)C1CCC(c2ccnc(O[C@@H]3CCN(c4cn[nH]c(=O)c4Cl)C3)c2)CC1 (stereo partly drawn) [P-0047, (R)-4-(2-((1-(5-chloro-6-oxo-1,6-dihydropyridazin-4-yl)pyrrolidin-3-yl)oxy)pyridin-4-yl)cyclohexane-1-carboxylic acid] | 0.001 to 10 | 0.001 to 10
17 | N#CC1CC2CCC(C1)N2c1ccnc(O[C@@H]2CCN(c3cn[nH]c(=O)c3Cl)C2)c1 (stereo partly drawn) [P-0049, 8-(2-(((R)-1-(5-chloro-6-oxo-1,6-dihydropyridazin-4-yl)pyrrolidin-3-yl)oxy)pyridin-4-yl)-8-azabicyclo[3.2.1]octane-3-carbonitrile] | 0.001 to 10 | 0.001 to 10
18 | Cc1noc(C)c1-c1ccnc(O[C@@H]2CCN(c3cn[nH]c(=O)c3C(F)(F)F)C2)c1 [P-0051, (R)-5-(3-((4-(3,5-dimethylisoxazol-4-yl)pyridin-2-yl)oxy)pyrrolidin-1-yl)-4-(trifluoromethyl)pyridazin-3(2H)-one] | 0.001 to 10 | 0.001 to 10
19 | Cc1nn(CC2CC(C#N)C2)c(C)c1-c1cc(O[C@@H]2CCN(c3cn[nH]c(=O)c3Cl)C2)ncn1 (stereo partly drawn) [P-0052, (R)-3-((4-(6-((1-(5-chloro-6-oxo-1,6-dihydropyridazin-4-yl)pyrrolidin-3-yl)oxy)pyrimidin-4-yl)-3,5-dimethyl-1H-pyrazol-1-yl)methyl)cyclobutane-1-carbonitrile] | 0.001 to 10 | 10 to 100
